Biological target: T1, Bma-GAR-3 (Brugia malayi, UniProt A0A4E9FL79)
T1 construct: full-length synthesized ORF; transgenic C. elegans gar-3(gk305) knockout, expressed in ASH neuron (sra-6p), body wall muscle (myo-3p) or pharynx (myo-2p)
Assay: ring aversion assay, transgenic C. elegans expressing receptor in ASH neuron
Settings: agonist; 100 mM in plate ring; whole transgenic worms, gar-3(gk305) knockout background; N2 and knockout as controls; also pharyngeal pumping and dye-uptake assays

T1 sequence (A0A4E9FL79 entry or part of it): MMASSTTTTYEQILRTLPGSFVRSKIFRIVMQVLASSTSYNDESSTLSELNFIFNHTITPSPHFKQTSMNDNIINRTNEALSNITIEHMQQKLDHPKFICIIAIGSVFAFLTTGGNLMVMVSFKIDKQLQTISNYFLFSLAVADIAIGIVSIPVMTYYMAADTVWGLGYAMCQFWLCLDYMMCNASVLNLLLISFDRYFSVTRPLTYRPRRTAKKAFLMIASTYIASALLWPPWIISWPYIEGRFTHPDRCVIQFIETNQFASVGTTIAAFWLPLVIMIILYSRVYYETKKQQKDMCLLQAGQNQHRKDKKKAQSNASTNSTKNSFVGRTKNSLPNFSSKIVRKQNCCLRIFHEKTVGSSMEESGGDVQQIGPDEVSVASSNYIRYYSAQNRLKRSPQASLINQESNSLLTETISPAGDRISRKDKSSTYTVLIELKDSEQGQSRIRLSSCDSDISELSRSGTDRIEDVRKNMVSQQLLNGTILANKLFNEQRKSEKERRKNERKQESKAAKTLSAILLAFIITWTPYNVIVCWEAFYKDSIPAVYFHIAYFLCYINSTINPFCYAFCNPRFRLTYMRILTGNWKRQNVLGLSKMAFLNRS

C[N+](C)(C)CC#CCN1CCCC1=O [OXO, oxotremorine M]
ring aversion assay, transgenic C. elegans expressing receptor in ASH neuron: this receptor is activated by acetylcholine and oxotremorine M
